This assay addresses T1, Apoptotic protease-activating factor 1 (Homo sapiens, UniProt O14727).
T1 sequence (O14727 whole entry): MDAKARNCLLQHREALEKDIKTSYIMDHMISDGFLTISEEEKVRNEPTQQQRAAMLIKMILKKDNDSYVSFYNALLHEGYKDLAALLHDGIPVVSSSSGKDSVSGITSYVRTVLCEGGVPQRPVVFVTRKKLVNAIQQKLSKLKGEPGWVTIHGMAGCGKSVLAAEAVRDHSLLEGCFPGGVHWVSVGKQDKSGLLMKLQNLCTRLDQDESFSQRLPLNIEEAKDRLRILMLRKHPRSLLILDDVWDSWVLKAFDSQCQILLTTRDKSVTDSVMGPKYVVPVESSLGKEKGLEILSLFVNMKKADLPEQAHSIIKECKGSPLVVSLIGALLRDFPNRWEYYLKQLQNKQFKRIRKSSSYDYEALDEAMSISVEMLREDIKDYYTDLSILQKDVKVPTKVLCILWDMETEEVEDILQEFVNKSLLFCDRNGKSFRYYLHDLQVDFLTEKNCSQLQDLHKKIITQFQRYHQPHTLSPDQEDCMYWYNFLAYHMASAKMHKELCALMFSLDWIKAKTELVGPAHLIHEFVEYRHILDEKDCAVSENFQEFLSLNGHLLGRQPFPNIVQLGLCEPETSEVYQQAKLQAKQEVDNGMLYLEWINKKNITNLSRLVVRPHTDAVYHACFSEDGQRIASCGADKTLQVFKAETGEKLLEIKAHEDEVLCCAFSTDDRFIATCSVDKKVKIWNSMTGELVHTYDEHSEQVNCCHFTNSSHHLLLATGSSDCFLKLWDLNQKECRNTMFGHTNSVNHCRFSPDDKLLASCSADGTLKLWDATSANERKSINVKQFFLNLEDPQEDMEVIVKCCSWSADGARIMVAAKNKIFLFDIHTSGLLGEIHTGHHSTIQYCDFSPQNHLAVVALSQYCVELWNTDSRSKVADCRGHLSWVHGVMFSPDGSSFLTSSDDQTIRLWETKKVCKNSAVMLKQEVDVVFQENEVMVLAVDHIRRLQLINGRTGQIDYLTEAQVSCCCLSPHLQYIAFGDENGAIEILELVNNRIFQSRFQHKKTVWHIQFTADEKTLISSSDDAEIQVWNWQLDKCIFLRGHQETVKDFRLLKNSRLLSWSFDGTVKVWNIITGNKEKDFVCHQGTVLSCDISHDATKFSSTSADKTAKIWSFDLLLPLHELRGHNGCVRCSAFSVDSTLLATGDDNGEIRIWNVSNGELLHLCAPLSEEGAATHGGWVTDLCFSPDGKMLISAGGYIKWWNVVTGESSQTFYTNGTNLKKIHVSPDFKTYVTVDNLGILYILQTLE
The assay is described as follows: activation of Apaf-1 mediated apoptosis – fluorescent, uHTS hits, dose response (AID 588554).

For orientation: EC50 means the concentration giving half of the maximal effect.

SMILES strings stand for the structures.

Regarding `CCOc1ccc(C(=O)CC=Nc2ccc(S(=O)(=O)NC(=N)N)cc2)cc1` [2-[4-[[(E)-3-(4-ethoxyphenyl)-3-oxidanylidene-prop-1-enyl]amino]phenyl]sulfonylguanidine], a half-maximal response (EC50) required 6.28 µM.

Consider `O=C(NN=CC1C=C(Cl)C=C([N+](=O)[O-])C1=O)NC12CC3CC(CC(C3)C1)C2` (stereo not drawn) [1-(1-adamantyl)-3-[[(E)-(3-chloro-5-nitro-6-oxo-1-cyclohexa-2,4-dienylidene)methyl]amino]urea], for which it took 6.87 µM to reach a half-maximal effect (EC50).

Compound `CSc1ccc(CN=Nc2ccc(S(=O)(=O)Nc3ccccc3C(=O)O)cc2[N+](=O)[O-])cc1` [MLS002245633] returned a concentration for a half-maximal effect (EC50) of 8.23 µM.

The record behind these values is BindingDB's records for doi:10.7270/Q29C6VXX (Burnham Center For Chemical Genomics, 2011).
